Data from patent US12054560B2, “Bifunctional molecules recruiting antibodies and targeting cancer cells” (JIANGNAN UNIVERSITY, priority 2017, dated 2024).
Square brackets hold non-standard residues; d marks the D form. Primed or numbered codes have the meaning given here. Side chains are listed from the residue outwards. oligo‑glycol (n:2) = oligo-glycol tether (n=2) linking D-Lys(N3) to alkynyl rhamnose by click reaction; oligo‑glycol (n:5) = oligo-glycol tether (n=5) linking D-Lys(N3) to alkynyl rhamnose by click reaction; dLys(N3)′ = its azide, alkyne or alkene has reacted where a group follows in round brackets; rhamnose derivative = not defined here; click linkage = not defined here; pGlu = O=C1CC[C@@H](C(=O)O)N1

What was measured:
[1] = system: HEK-293 (high expression of integrin αvβ3); experiment: Flow cytometry on HEK-293 cells; type: cell-based; conditions: FIG. 11
Method: (§1) Cell assay implementation: cell culture: commercial cells HEK-293 (high expression of integrin αvβ3), SKOV-3 (high expression of integrin αvβ3, αvβ 5), and HT-29 (high expression of integrin αvβ5) was cultured in DMEM complete medium. All cell culture conditions were 37° C., 5% CO2. Flow cytometry assay: (1) The cells were digested with trypsin, resuspended in flow medium diluted to 1×10^5 cells. 400 μL of cells (40,000 cells) were added to a sterile EP tube. (2) RGD analogues (SEQ ID NO:9), RGD-DNP and RGD-linker-DNP compounds were added […], incubate on ice for 1 h. Then the cells were washed and incubated with fluorescent secondary antibody for 0.5 h. (3) the cells were thoroughly washed gently with a flow buffer, resuspended, and analyzed by instruments.

HEK-293 cells [2] = experiment: CDC assay on HEK-293 cells; type: cell-based; conditions: 250 nM, anti-DNP antibody, 10% complement, cck8 method, FIG. 11
Method: CDC assay implementation: (1) HEK-293, SKOV-3, HT-29 cells were seeded in 96-well plates at a concentration of 5,000 cells/well. After the cells were fully attached, added with RGD analogues (SEQ ID NO:9), RGD-DNP and RGD-linker-DNP compounds at a final concentration of 250 nM and added a certain concentration of anti-DNP antibody at the same time. After 2 hours of incubation at 37° C., a final concentration of 10% of the complement solution was added and incubated for 1 hour at 37° C. After the incubation, the cell viability was measured by the cck8 method.

[3] = system: SKOV-3 (high expression of integrin αvβ3, αvβ 5); experiment: Flow cytometry on SKOV-3 cells; type: cell-based; conditions: FIG. 11
Method: as §1

HEK-293 cells [4] = experiment: ADCC assay on HEK-293 cells; type: cell-based; conditions: 250 nM, anti-DNP antibody, PBMC, LDH method, FIG. 11
Method: ADCC assay implementation: (1) HEK-293, SKOV-3, HT-29 cells were seeded in 96-well plates at a concentration of 10,000 cells/well. After the cells were fully attached, added with RGD analogues (SEQ ID NO:9), RGD-DNP and RGD-linker-DNP compounds at a final concentration of 250 nM and immediately added a certain concentration of anti-DNP antibody. (2) After incubation for a period of time, freshly extracted PBMC cells were added at a certain effect target ratio for a certain period of time. (3) The supernatant was removed by centrifugation, and cytotoxicity was measured by the LDH method.

[5] = system: HT-29 (high expression of integrin αvβ5); experiment: Flow cytometry on HT-29 cells; type: cell-based; conditions: FIG. 11
Method: as §1

[6] = system: MCF7 cells (LHRH-R positive); experiment: Flow cytometry, recruitment of anti-Rha antibody on MCF7 cells; type: cell-based; conditions: 250 nM, anti-Rha antibody 20 μg/mL, FIG. 7
Method: (§2) Commercialized MCF7 cells (LHRH-R positive) and UCI-107(LHRH-R negative) were grown in DMEM supplemented with 10% FBS, 1% penicillin-streptomycin. All cells were cultured at 37° C. in a 5% CO2 humidified atmosphere.
(1) Cells were cultured and detached with trypsin-EDTA and then resuspended to 1.0×10^5 cells/mL. Forty thousand of these cells were added into sterile centrifuge tubes. (2) LHRH, LHRH-Rha, LHRH-TEG-Rha and LHRH-HEG-Rha compounds were added at a final concentration of 250 nM. For the blank group (Negative), the corresponding volume of PBS was added. And anti-Rha antibody at a final concentration of 20 μg/mL in all groups. These cells were incubated on ice for 60 min, washed with flow cytometry buffer. And fluorescent secondary antibody was immediately added in all groups. These cells were incubated on ice for 30 min, (3) washed with flow cytometry buffer and then analyzed using an Accuri C6 flow cytometer.

[7] = system: MCF7 cells (LHRH-R positive); experiment: ADCC experiment on MCF7 cells; type: cell-based; conditions: MCF-7 cells, 250 nM, anti-Rha antibody, PBMC, LDH method, FIG. 7
Method: as §2
(1) MCF7 or UCI-107 cells were seeded in 96-well plates at a concentration of 10,000 cells/well and then treated with LHRH, LHRH-Rha, LHRH-TEG-Rha and LHRH-HEG-Rha at a final concentration of 250 nM and a certain concentration of anti-Rha antibody. (2) Following the incubation period, freshly extracted PBMC cells were added at a certain effective target ratio, (3) and the supernatant was treated by centrifugation for minutes, using LDH method to measure the cytotoxicity.

[8] = system: MCF7 cells (LHRH-R positive); experiment: CDC experiment on MCF7 cells; type: cell-based; conditions: MCF-7 cells, 250 nM, anti-Rha antibody, 10% rabbit complement, cck8 kit, FIG. 7
Method: as §2
(1) MCF7 cells or UCI-107 were seeded in 96-well plates at a concentration of 5000 cells/well and then treated with LHRH, LHRH-Rha, LHRH-TEG-Rha and LHRH-HEG-Rha at a final concentration of 250 nM and a certain concentration of anti-Rha antibody. Following the incubation at 37° C. for 2 h, next, diluted rabbit complement at a final concentration of 10% were added to each well. Following the incubation at 37° C. for 1 h, the results detected using cck8 kit.

HER2 = molecular target: T1, HER2 (UniProt P04626 23-1255, limits assumed); experiment: flow cytometry on SKBR3 cells at 250 nM, detected with Alexa 488 rabbit anti-Rha IgG
T1 construct: whole, on cells; also called human epidermal growth factor receptor 2; HER2 (on SKBR3 cells)

LHRH-R = molecular target: T2, LHRH-R (UniProt P30968 1-328); experiment: cell-based or functional assay
T2 sequence (looked up): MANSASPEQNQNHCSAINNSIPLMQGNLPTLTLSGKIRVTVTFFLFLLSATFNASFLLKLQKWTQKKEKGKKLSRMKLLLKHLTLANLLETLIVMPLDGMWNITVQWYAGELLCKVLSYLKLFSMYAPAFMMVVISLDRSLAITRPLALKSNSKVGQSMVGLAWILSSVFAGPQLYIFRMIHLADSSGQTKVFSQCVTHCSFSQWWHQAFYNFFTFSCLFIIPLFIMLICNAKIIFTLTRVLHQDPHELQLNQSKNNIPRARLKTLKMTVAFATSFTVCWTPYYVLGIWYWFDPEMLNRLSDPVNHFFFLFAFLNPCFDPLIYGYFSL

SKBR3 cells [9] = experiment: ADCC assay on SKBR3 cells; type: cell-based; conditions: rabbit anti-Rha IgG, human peripheral blood mononuclear cells, LDH kit, FIG. 6(A)
Method: (§3) SKBR3 (HER2 positive) and MCF7 cells (HER2 negative) were grown in DMEM supplemented with 10% FBS, 1% penicillin-streptomycin. All cells were cultured at 37° C. in a 5% CO2 humidified atmosphere.
(1) SKBR3 cells were seeded in 96-well plates at a concentration of 10,000 cells/well and then treated with C7b and Rha conjugated C7b in the presence of rabbit anti-Rha IgG antibodies. (2) Next, freshly isolated human peripheral blood mononuclear cells were added to each well. (3) Following the incubation period, the supernatant was transferred onto a new black 96-well and detected using LDH kit.

SKBR3 cells [10] = experiment: CDC assay on SKBR3 cells; type: cell-based; conditions: 20% normal human serum, cck8 kit, FIG. 6(B)
Method: as §3
(1) SKBR3 cells were seeded in 96-well plates at a concentration of 5000 cells/well and (2) then treated with C7b and Rhaconjugated C7b in the presence of 20% normal human serum (the source of anti-Rha IgG and complement). (3) Following the incubation period, the results detected using cck8 kit.

## RGD-linker-DNP: DNP coupled through a linker to cyclic RGD analogue Cyclo-(DFKRG), long connecting arm (cyclo(DFKRG); also: DNP conjugated via long linker (site only in drawing))
[1]
  binding to cells: can bind
HEK-293 cells [2]
  CDC kill rate: 42%
[3]
  binding to cells: can bind
HEK-293 cells [4]
  ADCC kill rate: 38%
[5]
  binding to cells: can bind

## LHRH-Rha: [6-D-Lys(N3)]-LHRH peptide click-coupled to rhamnose derivative, oligo-glycol linker n=0 ([pGlu]HWSYKLRPG-NH2; not fully specified (residue 6); printed as Glp-His-Trp-Ser-Tyr-D-Lys(N3)-Leu-Arg-Pro-Gly-NH2; also: rhamnose derivative attached via click (triazole) to D-Lys6, oligo-glycol n=0, structure in drawing)
[6]
  recruitment of anti-Rha antibodies to MCF-7 tumor cells: could recruit anti-Rha antibodies
[7]
  ADCC-mediated killing rate: about 33%
[8]
  CDC-mediated killing rate: about 26%

## RGD-DNP: DNP coupled to cyclic RGD analogue Cyclo-(DFKRG), short connecting arm (cyclo(DFKRG); also: DNP conjugated (site only in drawing))
[1]
  binding to cells: can bind
HEK-293 cells [2]
  CDC kill rate: 21%
[3]
  binding to cells: can bind
HEK-293 cells [4]
  ADCC kill rate: 18%
[5]
  binding to cells: can bind

## LHRH-TEG-Rha: [6-D-Lys(N3)]-LHRH peptide click-coupled to rhamnose derivative, oligo-glycol linker n=2 ([pGlu]HWSY[dLys(N3)′]([click linkage-oligo‑glycol n:2-rhamnose derivative])LRPG-NH2; reading uncertain; also: rhamnose derivative attached via click (triazole) to D-Lys6, oligo-glycol n=2, structure in drawing)
[6]
  recruitment of anti-Rha antibodies to MCF-7 tumor cells: could recruit anti-Rha antibodies
[7]
  ADCC-mediated killing rate: about 33%
[8]
  CDC-mediated killing rate: about 26%

## LHRH-HEG-Rha: [6-D-Lys(N3)]-LHRH peptide click-coupled to rhamnose derivative, oligo-glycol linker n=5 ([pGlu]HWSY[dLys(N3)′]([click linkage-oligo‑glycol n:5-rhamnose derivative])LRPG-NH2; reading uncertain; also: rhamnose derivative attached via click (triazole) to D-Lys6, oligo-glycol n=5, structure in drawing)
[6]
  recruitment of anti-Rha antibodies to MCF-7 tumor cells: could recruit anti-Rha antibodies
[7]
  ADCC-mediated killing rate: about 33%
[8]
  CDC-mediated killing rate: about 26%

B1: C7b-triEGRha (VHH)
VHH: QVQLVQSGGGLVQAGGSLRLSCAASGRTFSSYAMAWFRQAPGKEREFVAAISWSGANIYVADSVKGRFTISRDNAKDTVYLQMNSLKPEDTAVYYCAVKLGFAPVEERQYDYWGQGTQVTVSS
modifications: C-terminal LPETGG motif ligated by sortase A (enhanced SrtA) to GGG-triEGRha (triethylene glycol-rhamnose)
notes: also called Rha conjugated C7b
HER2
  binding result: binds

B2: C7b-hexEGRha (VHH)
VHH: QVQLVQSGGGLVQAGGSLRLSCAASGRTFSSYAMAWFRQAPGKEREFVAAISWSGANIYVADSVKGRFTISRDNAKDTVYLQMNSLKPEDTAVYYCAVKLGFAPVEERQYDYWGQGTQVTVSS
modifications: C-terminal LPETGG motif ligated by sortase A (enhanced SrtA) to GGG-hexEGRha (hexaethylene glycol-rhamnose)
notes: as for B1
HER2
  binding result: binds

## [pGlu]HWSY[dLys(N3)′](rhamnose)LRPG-NH2 [LHRH-Rha]
LHRH-R
  ADCC-mediated killing rate: ~33%
  CDC-mediated killing rate: ~26%

## [pGlu]HWSY[dLys(N3)′]([oligo‑glycol (n:5)-rhamnose])LRPG-NH2 [LHRH-HEG-Rha]
LHRH-R
  ADCC-mediated killing rate: ~33%
  CDC-mediated killing rate: ~26%

## [pGlu]HWSY[dLys(N3)′]([oligo‑glycol (n:2)-rhamnose])LRPG-NH2 [LHRH-TEG-Rha]
LHRH-R
  ADCC-mediated killing rate: ~33%
  CDC-mediated killing rate: ~26%

B3: C7b-triEGRha: nanobody C7b linked by SrtA to small molecule GGG-triEGRha (conjugate)
VHH: MQVQLVQSGGGLVQAGGSLRLSCAASGRTFSSYAMAWFRQAPGKEREFVAAISWSGANIYVADSVKGRFTISRDNAKDTVYLQMNSLKPEDTAVYYCAVKLGFAPVEERQYDYWGQGTQVTVSSLPETGG
SKBR3 cells [9]
  ADCC efficacy: 32%
SKBR3 cells [10]
  CDC efficacy: 36%

B4: C7b-hexEGRha: nanobody C7b linked by SrtA to small molecule GGG-hexEGRha (conjugate)
VHH: MQVQLVQSGGGLVQAGGSLRLSCAASGRTFSSYAMAWFRQAPGKEREFVAAISWSGANIYVADSVKGRFTISRDNAKDTVYLQMNSLKPEDTAVYYCAVKLGFAPVEERQYDYWGQGTQVTVSSLPETGG
SKBR3 cells [9]
  ADCC efficacy: 43%
SKBR3 cells [10]
  CDC efficacy: 47%
